Patent US20240208896A1, “PRODRUGS OF KV7 CHANNEL OPENERS” (Xyzagen, Inc., priority 2021, published 2024)
Read-outs that look alike come from different tables or passages of the source.

Assays:
[1] = Acid and organic solution stability, HPLC-UV 250 nm; conditions: 5 mg/mL; for Degradation / conversion to ezogabine in solution: acidic solutions and organic solvents, up to 3 weeks
Method: An HPLC-UV Vis method was developed using 0.1% Formic acid in water as mobile phase A and 0.1% Formic acid in acetonitrile as mobile Phase B. A gradient method was developed ramping from 10% A to 90% B over 8 minutes and then returning to 10% A at 8.5 minutes on a 4.6×50 mm Zorbax C-18 column. Injections of 10 uL of stability solutions were injected for analyte detection.
[…] Aliquots were collected at serial time points and then diluted to a nominal concentration of 100 ug/mL for injection to the HPLC and 250 nm monitored by the diode array detector. Data at approximately 10 days is presented.
Aliquots were collected at serial time points and then diluted to a nominal concentration of 100 ug/mL for injection to the HPLC and 250 nm monitored by the diode array detector.
(§1) It was also evaluated at 2 N HCl at 37° C. Aliquots were collected at serial time points and then diluted to a nominal concentration of 100 ug/mL for injection to the HPLC and 250 nm monitored by the diode array detector.
as §1, §1, §1

Human Kv7.2/7.3 = Human Kv7.2/7.3 (Homo sapiens, UniProt O43525+O43526); assay: In vitro screen of Kv7.2/7.3 voltage gated potassium channels (FluxOR, FLIPR); assay type: cell-based; conditions: Human Kv7.2/7.3 cells; FluxOR fluorescence; 0.03 to 30 μM
Chain of Human Kv7.2/7.3 (O43526 whole entry): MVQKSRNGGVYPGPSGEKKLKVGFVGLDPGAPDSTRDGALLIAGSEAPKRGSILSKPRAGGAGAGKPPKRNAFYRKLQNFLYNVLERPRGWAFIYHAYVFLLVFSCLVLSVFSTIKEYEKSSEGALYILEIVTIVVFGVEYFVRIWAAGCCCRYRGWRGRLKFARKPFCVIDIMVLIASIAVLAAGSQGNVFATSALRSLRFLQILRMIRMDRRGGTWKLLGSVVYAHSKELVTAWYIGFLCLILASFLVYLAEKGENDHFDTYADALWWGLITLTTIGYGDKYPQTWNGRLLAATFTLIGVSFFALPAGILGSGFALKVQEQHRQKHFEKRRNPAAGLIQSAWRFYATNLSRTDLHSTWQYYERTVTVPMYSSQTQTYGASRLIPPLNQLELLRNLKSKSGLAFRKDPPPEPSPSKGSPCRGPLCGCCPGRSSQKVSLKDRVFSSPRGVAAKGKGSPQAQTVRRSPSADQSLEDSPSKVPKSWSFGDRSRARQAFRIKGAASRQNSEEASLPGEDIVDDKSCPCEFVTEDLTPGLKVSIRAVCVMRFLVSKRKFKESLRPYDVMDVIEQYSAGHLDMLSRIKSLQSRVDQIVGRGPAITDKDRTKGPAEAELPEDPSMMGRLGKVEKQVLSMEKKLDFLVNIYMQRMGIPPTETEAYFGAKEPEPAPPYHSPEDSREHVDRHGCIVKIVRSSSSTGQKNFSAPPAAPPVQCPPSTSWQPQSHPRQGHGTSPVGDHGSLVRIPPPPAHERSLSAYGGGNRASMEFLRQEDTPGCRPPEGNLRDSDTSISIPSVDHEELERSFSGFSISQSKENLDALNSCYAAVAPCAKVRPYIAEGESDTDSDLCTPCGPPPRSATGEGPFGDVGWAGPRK
Chain of Human Kv7.2/7.3 (O43525 whole entry): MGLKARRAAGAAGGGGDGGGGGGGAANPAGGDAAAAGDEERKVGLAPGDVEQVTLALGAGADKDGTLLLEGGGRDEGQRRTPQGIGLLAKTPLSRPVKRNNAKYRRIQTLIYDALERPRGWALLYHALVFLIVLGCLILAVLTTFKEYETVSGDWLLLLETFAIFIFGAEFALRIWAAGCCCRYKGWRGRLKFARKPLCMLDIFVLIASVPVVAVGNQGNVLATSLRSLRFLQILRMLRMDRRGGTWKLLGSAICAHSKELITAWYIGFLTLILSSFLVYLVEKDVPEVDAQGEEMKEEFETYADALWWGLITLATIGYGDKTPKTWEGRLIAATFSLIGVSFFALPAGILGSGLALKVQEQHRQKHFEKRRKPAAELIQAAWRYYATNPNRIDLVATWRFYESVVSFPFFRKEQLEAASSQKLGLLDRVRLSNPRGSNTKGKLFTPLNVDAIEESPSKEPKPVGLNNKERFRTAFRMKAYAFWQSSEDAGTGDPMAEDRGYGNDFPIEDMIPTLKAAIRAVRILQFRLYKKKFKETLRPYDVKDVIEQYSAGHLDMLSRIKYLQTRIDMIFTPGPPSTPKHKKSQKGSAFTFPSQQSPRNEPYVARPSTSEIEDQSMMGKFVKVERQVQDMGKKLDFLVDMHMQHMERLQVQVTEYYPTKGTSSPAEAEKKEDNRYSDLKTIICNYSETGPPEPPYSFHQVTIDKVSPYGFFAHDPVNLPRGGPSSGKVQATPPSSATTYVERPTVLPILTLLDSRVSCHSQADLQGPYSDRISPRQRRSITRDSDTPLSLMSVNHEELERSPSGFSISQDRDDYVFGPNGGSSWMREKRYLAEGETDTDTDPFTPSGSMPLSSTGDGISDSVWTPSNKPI
Method: Human Kv7.2/7.3 cells are harvested, counted and seeded in black, clear-bottomed 96 well plates at a density of 50,000 cells per well in 100 μl volume and incubated overnight. The following day, media was removed and 40 μl of loading buffer (4.895 mL HBSS:HEPES, 50 μL probenecid, 50 μL power load, 5 μl FluxOR reagent) was added and incubated at room temperature for 30 minutes. After incubation loading buffer was removed and 40 μl of assay buffer added (4.45 ml HBSS:HEPES, 500 μl FluxOR assay buffer and 50 μL probenecid) and incubated for 10 minutes.

[2] = Solvent solubility assessment by visual inspection; assay type: physicochemical
Method: Compounds were weighed and placed into a 4 dram vials and solvents were added to the target concentration. Compounds were vortex and visually inspected for particulates and considered soluble if clear upon visual inspection with and without magnification. Solubility was reported as either greater than (>) or less than (<) from the prepared concentration. […] It was evaluated at 10 mg/mL in 0.1 N NaCl and was freely soluble. It was evaluate at 1 mg/mL in 0.1 N NaOH and 0.1 N Na2HPO4 and was freely soluble. In ethanol and methanol it was freely soluble at a concentration of 75 mg/mL. […] It was freely soluble at 75 mg/mL in methanol and ethanol. It was soluble at 1 mg/mL in 1N HCl.

[3] = Benchtop solvent stability exposed to light, HPLC-UV 230 nm, up to 7 days; assay type: physicochemical; conditions: for Stability in solvent: benchtop, exposed to light
Method: Compounds in solvent were left on the benchtop exposed to light for up to 7 days since it is known that Compound 1 will degrade with light within 3-7 days.
Stability was assessed by taking an aliquot from the solubility vials at each test day. A single replicate was injected for each test condition.
Samples were injected onto an HPLC system with an aqueous mobile phase and acetonitrile organic phase and compounds were separated on a C8 50×2 mm column. Wavelength 230 nm was monitored for absorption and integrated for peak area while the mass spectrometer was used to confirm mass. Samples were tested on Day 1 and on subsequent days through Day 7.

[4] = Pharmacokinetics of ezogabine prodrugs in rat (IV, IM, PO); conditions: rat, in vivo, po
Method: Blood was diluted by 10% with these stabilizers.
Extraction of the molecules was conducted by taking a 50 uL aliquot of plasma and adding 200 uL of acetonitrile containing 200 ng/mL tolbutamide as the internal standard. Samples were precipitated in a 96 well plate, centrifuges and an aliquot transferred to a new plate, dried down under heat and nitrogen and then reconstituted in the initial mobile phase conditions of the LC-MS/MS method. […] A standard curve was prepared from 5000 ng/mL to 1 ng/mL for each analyte. Concentration data from the bioanalytical run was analyzed by Phoenix Winnonlin version 8 for noncompartmental PK analysis, plotting of concentration time curves and tabulation of PK parameters.
150 uL of blood were collected at predesignated time points. At completion of the study animals were asphyxiated by carbon dioxide gas and exsanguinated for euthanasia.

[5] = 1000 ng/mL
Method: Plasma was collected by the biomaterial vendor and kept frozen at −20° C.
The samples were analyzed by HPLC separation and mass spectrometry detection for prodrug amount, relative to a baseline time 0 control sample. Triplicate samples were generated at each time point and the peak area response was averaged and converted to a percent of baseline control.

[6] = tested on: CCI model of neuropathic pain; assay: CCI model of neuropathic pain (pin prick, von Frey); assay type: in vivo, Sprague Dawley rat; conditions: CCI rats, 1 h after pretreatment
Method: Compound 3 was tested for reversal of mechanical hypersensitivity to the pin prick test for hindlimb paw withdraw and the von Frey hairs for gram force mechanical allodynia in the CCI model of neuropathic pain. Male Sprague Dawley rats (n=8/group) were tested for baseline sensitivity on Day 1 (ipsilateral and contralateral paws) and administered XYG-203 orally; 40 mg/kg on Day 1, 20 mg/kg Day 3, 10 mg/kg Day 5, 5 mg/kg Day 7, 1 mg/kg Day 10 and baseline on Day 12. Mechanical hypersensitivity was tested 1 h after pretreatment. Data (mean±SD) were analyzed with a repeated measures ANOVA with Dunnet's adjustment for multiple comparisons.

[7] = Rat PK at equimolar dose to Ezogabine (20 mg/kg) in 0.5% methylcellulose; conditions: for AUClast/D / Cmax/D: male cannulated rats, equimolar to Ezogabine 20 mg/kg, 0.5% methylcellulose, analyte the dosed prodrug
Method: (§2) Blood samples were collected at the same time points over 24 hours to generate a concentration time profile. Two male rats were dosed per group. Plasma samples were analyzed by LC/MS/MS and the resulting concentration time profiles and PK parameters are provided.
as §2, §2

MES induced seizures = assay: MES assay in CF-1 mice, Compound 28 IP dose response; assay type: in vivo, CF-1 mouse; conditions: for Animals protected from MES induced seizures: 30 minutes after administration

CCOC(=O)Nc1ccc(NCc2ccc(F)cc2)cc1NC(=O)OC(C)OC(=O)C(C)C (stereo not shown) [Compound 3]
Colour of stability solution [1]: clear and colorless through Day 18
Ezogabine Area (formed from the prodrug) ([1]; 0.1N HCl, room temp., normal light, 433 h): 400 mAU
Ezogabine Area (formed from the prodrug) ([1]; 1N HCl, room temp., normal light, 97 h): 2881 mAU
Ezogabine Area (formed from the prodrug) ([1]; Acetonitrile, room temp., normal light, 435 h): 51 mAU
Ezogabine Area (formed from the prodrug) ([1]; Ethanol, room temp., normal light, 390 h): 43 mAU
Ezogabine Area (formed from the prodrug) ([1]; Methanol, room temp., normal light, 435 h): 41 mAU
Degradation / conversion to ezogabine in solution [1]: converts to ezogabine under acidic conditions but does not in organic solvent
Colour of stability solution ([1]; 9 days): turned a golden yellow by Day 9
% Remaining ([1]; 390 h): 97.6%
% Remaining ([1]; buffer, 97 h): 1.78%
% Remaining ([1]; buffer, 433 h): 11.8%
Activity against the primary target of Kv7.2/7.3 (Human Kv7.2/7.3): inactive
Solubility ([2]; 0.1N HCl): <1000 µg/mL
Solubility ([2]; 0.1 N Na2HPO4, aqueous buffer, thermodynamic from solid, read-out: Solubility (freely soluble at tested concentration)): < 1000 µg/mL
Solubility ([2]; 0.1N NaCl): <1000 µg/mL
Solubility ([2]; 0.1 N NaCl, saline or isotonic, thermodynamic from solid, read-out: Solubility (freely soluble at tested concentration)): < 1000 µg/mL
Solubility ([2]; 0.1N NaOH): <1000 µg/mL
Solubility ([2]; 0.1 N NaOH, aqueous buffer, thermodynamic from solid, read-out: Solubility (freely soluble at tested concentration)): < 1000 µg/mL
Solubility ([2]; 0.1 Na2HPO4): <1000 µg/mL
Solubility ([2]; 1N HCl): >1000 µg/mL
Solubility ([2]; Ethanol): >75000 µg/mL
Solubility ([2]; Methanol): >75000 µg/mL
Solubility ([2]; Water): <1000 µg/mL
Solubility ([2]; aqueous buffer, thermodynamic from solid, 1N HCl, read-out: Solubility (soluble at tested concentration)): > 1000 µg/mL
Solubility ([2]; ethanol, organic solvent or mixture, thermodynamic from solid, read-out: Solubility (freely soluble at tested concentration)): > 75000 µg/mL
Solubility ([2]; methanol, organic solvent or mixture, thermodynamic from solid, read-out: Solubility (freely soluble at tested concentration)): > 75000 µg/mL
Solubility ([2]; simulated gastric fluid, thermodynamic from solid, 0.1N HCl, read-out: Solubility (freely soluble at tested concentration)): < 1000 µg/mL
Solubility ([2]; water, thermodynamic from solid, read-out: Solubility (freely soluble at tested concentration)): < 1000 µg/mL
Stability in solvent ([3]; 0.1 N HCl): appears to be stable over 4 days
Change of solubility over time ([3]; 0.1N Na2HPO4, H2O, 0.1N NaCl, Day 1 to Day 3): increases in solubility over time
Stability in solvent ([3]; 1 N HCl): not stable in 1 N HCl over 7 days
Stability in solvent ([3]; ethanol and methanol): soluble and stable through 3 days in ethanol and methanol, while on Day 4 it exhibits degradation
Exposure of the prodrug itself in systemic circulation [4]: very little exposure
Time by which prodrug is degraded in plasma ([5]; mouse): ≤ 1 h
Time by which prodrug is degraded in plasma ([5]; rat): ≤ 1 h
Reversal of mechanical hypersensitivity vs baseline ([6]; oral 5 mg/kg): the 95% confidence intervals did not cross the baseline mean
Gram force to paw lift (von Frey) ([6]; oral 40 mg/kg): increased the gram force to paw lift significantly
Reduction of latency of neuropathic ipsilateral paw withdrawal (pin prick) ([6]; oral 40 mg/kg, p=0.0003): 9.2 s
AUClast/D [7]: 0.0136 ng·h/mL/mg/kg
Cmax/D [7]: 0.0273 ng/mL/mg/kg
Total exposure of ezogabine relative to ezogabine on a given molar dose ([7]; male, rat, in vivo): > 2 fold

CCOC(=O)Nc1ccc(NCc2ccc(F)cc2)cc1NC(=O)[C@H](N)CO [Compound 6]
Colour of stability solution [1]: remained clear and colorless through Day 18
Ezogabine Area (formed from the prodrug) ([1]; 1N HCl, room temp., normal light, 437 h): 58 mAU
Ezogabine Area (formed from the prodrug) ([1]; 2N HCl 37C, 437 h): 461 mAU
Ezogabine Area (formed from the prodrug) ([1]; 2N HCl, room temp., normal light, 437 h): 177 mAU
Ezogabine Area (formed from the prodrug) ([1]; Methanol, room temp., normal light, 437 h): 184 mAU
Degradation / conversion to ezogabine in solution [1]: very little degradation to ezogabine
% Remaining ([1]; 437 h): 67.7%
AUClast/D [7]: 199 ng·h/mL/mg/kg
Cmax/D [7]: 233 ng/mL/mg/kg

CCOC(=O)Nc1ccc(NCc2ccc(F)cc2)cc1NC(=O)C[C@@H](CN)CC(C)C [Compound 28]
Ezogabine Area (formed from the prodrug) ([1]; 0.1N HCl, room temp., normal light, 440 h): 0 mAU
Ezogabine Area (formed from the prodrug) ([1]; 1N HCl, room temp., normal light, 440 h): 568 mAU
Ezogabine Area (formed from the prodrug) ([1]; 2N HCl 37C, 440 h): 3593 mAU
Ezogabine Area (formed from the prodrug) ([1]; 2N HCl, room temp., normal light, 440 h): 1462 mAU
Ezogabine Area (formed from the prodrug) ([1]; Acetonitrile, room temp., normal light, 440 h): 248 mAU
Ezogabine Area (formed from the prodrug) ([1]; Methanol, room temp., normal light, 440 h): 0 mAU
Degradation / conversion to ezogabine in solution [1]: exhibits degradation to ezogabine with increasing strength of the acidic solution
Animals protected from MES induced seizures (MES induced seizures; IP 12 mg/kg): 1 of 9
Animals protected from MES induced seizures (MES induced seizures; IP 24 mg/kg): 3 of 9
Protection against MES induced seizures (MES induced seizures; IP 1.5, 3, 6, 12 and 24 mg/kg): None of the doses showed complete protection
AUClast/D [7]: 83.0 ng·h/mL/mg/kg
Cmax/D [7]: 9.31 ng/mL/mg/kg

CCNC(=O)CC[C@H](N)C(=O)Nc1cc(NCc2ccc(F)cc2)ccc1NC(=O)OCC.Cl [Compound 29]
Ezogabine Area (formed from the prodrug) ([1]; 0.1N HCl, room temp., normal light, 441 h): 0 mAU
Ezogabine Area (formed from the prodrug) ([1]; 1N HCl, room temp., normal light, 441 h): 1241 mAU
Ezogabine Area (formed from the prodrug) ([1]; 2N HCl 37C, 441 h): 1755 mAU
Ezogabine Area (formed from the prodrug) ([1]; 2N HCl, room temp., normal light, 441 h): 1659 mAU
Ezogabine Area (formed from the prodrug) ([1]; Methanol, room temp., normal light, 441 h): 0 mAU
Degradation / conversion to ezogabine in solution [1]: exhibits degradation under acidic conditions and also conversion to ezogabine
AUClast/D [7]: 305 ng·h/mL/mg/kg
Cmax/D [7]: 44.2 ng/mL/mg/kg
